Experimental data as given in patent US6348487B1, “2-phenyl benzimidazole derivatives as MCP-1 antagonists” (Millennium Pharmaceuticals, Inc., priority 1996, dated 2002).
Marks after values point to notes of the source that are not given here.

Experiments:
[1] = test system: T lymphocyte blast cells (CD3-Blasts); experiment: CD3-Blast Chemotaxis Assay (transendothelial migration to MCP-1); type: cell-based, human; conditions: 10 μM compound; MCP-1 about 10 nM; ECV304 endothelial coated Transwells
Description: Recombinant human MCP-1 was obtained from Peprotech (Rockey Hill, N.J.). T lymphocyte blast cells (CD3-Blasts) were generated by standard protocols (Coligan, J. E., A. M. Kruisbeek, D. H. Macgulies, E. M. Shevach, and W. Strober, editors. 1992. Current Protocols in Immunology. John Wiley and Sons, New York 7.1.2, 7.10.1-7.10. 10). Briefly, human peripheral blood mononuclear cells (PBMC) were isolated from heparinized venous blood by Percoll density gradient centrifugation (d=1.088) at room temperature. RBCs were removed by hypotonic lysis or dextran sedimentation. Blast cells were generated by incubating 2×10^6 PBMC in 24-well tissue culture plates that were coated with 2.5 μg of an anti-CD3 monoclonal antibody (identified as TR66, a gift from Dr. A. Lanzivecchia; similar monoclonal antibody is HIT3a, from Parmingen #30111A) at 37° C. for 48 to 72 hours, and then transferring 12 wells to T25 or T75 flasks with RPMI (Roswell Park Memorial Institute 1640, a growth cell medium available from Gibco/RBL, Inc., New York)+10% FCS (fetal calf serum)+50 units/ml IL-2. The cells are expanded and cultured for up to 3 weeks. CD3-Blast chemotaxis was assessed no sooner than 3 to 4 days after transfer to the IL-2 containing medium using a modification of a transendothelial migration assay (Carr. M. W., S. J. Roth, B. Luther, S. S. Rose, and T. A. Springer. 1994. Monocyte chemoattractant protein 1 acts as a T-lymphocyte chemoattractant. Proc. Natl. Acad. Sci. USA 91:3652-6). The endothelial cells used for this assay were the endothelial cell line ECV304. (ECV304 was from the European Collection of Animal Cell Cultures, Porton Downs, UK, assession #92091712). Endothelial cells were cultured on 6.5 mm diameter Transwell culture inserts (Costar) with a […] pore size. […] Background migration was determined by counting cells that migrated in the absence of MCP-1 in the lower chamber. […] The percent inhibition by compounds of directed migration was determined by the following formula: [drawing 32] […]

[2] = test system: T cell recruitment at sites of DHR; experiment: Inhibition of T cell recruitment to rat skin inflammatory (DHR) sites; type: in vivo
Description: Inbred, approximately 200 g, male Lewis rats were used in all experiments. Cutaneous delayed hypersensitivity (DHR) was induced as previously described (1). Briefly, rats were sensitized to KLH (Sigma Chemical Co., St. Louis, Mo.) by administering 50 μg KLH in 0.1 mL complete Freund's adjuvant (CFA; Sigma Chemical Co.) into each of 4 subcutaneous sites. After 14 days, DHR was elicited by the challenge of 5 μg KLH in PBS into multiple intradermal sites on the back. Analysis was performed 24 hours after antigen challenge. For each experiment, there were at least three groups of animals of at least four animals in each group. […]
T cell recruitment at sites of DHR was quantified using methods previously described (1-4). […] The cells in the effluent were highly purified (>95%) rat T cells as assessed by anti-rat CD3 (monoclonal antibody KT3, Biosource International, Camarillo, Calif.) immunoreactivity by flow cytometry. […] Skin challenge sites (8 mm in diameter) were counted on a γ counter 24 hours after injection of radiolabeled T cells. Lung, liver, and spleen were also collected and counted as comparative indices for evaluation of input.
Statistical significance was determined using a paired Student's t-test. […]

CCN(CC)CCN(CCN(CC)CC)c1ccc(-c2nc3cc(Cl)c(Cl)cc3[nH]2)cc1 [Example 1, N-[4-(5,6-dichloro-1H-benzimidazol-2-yl)-phenyl]-N-(2-diethylamino-ethyl)-N, N-diethyl-ethane-1,2-diamine]
% Inhibition of Chemotaxis at 10 μM [1]: 62-142* %
inhibition of T cell recruitment in rat DHR ([2]; 30 and 23 mg/kg per os at the time of antigen challenge, 24 hour period (FIG. 2)): statistically significant inhibitory effect
recruitment of 111In-labeled rat T cells to skin DHR sites ([2]; administered once per os at the time of antigen challenge (FIG. 2)): inhibited the recruitment of ^111In-labeled rat T cells to skin DHR sites in a dose-dependent fashion
